According to PMC9402538, “Rational design of a sensitivity-enhanced tracer for discovering efficient APC–Asef inhibitors” (Nature Communications, 2022):
Several values for one entry are separate records, joined by “and”; a condition that tells them apart may be missing. Equal entries are not always repeated. Where two headings read alike, the source gives them in different places. Where a SMILES comes first, the peptide text is derived from it. The star is where a group is joined. Adamantane1carbonyl = O=C(C12CC3CC(CC(C3)C1)C2)*; Pyrrole2CO = O=C(c1ccc[nH]1)*; X2 = O=C(c1cncs1)*

Tests used:
APC (303–739) = target: T1, APC (303–739) (Homo sapiens, UniProt P25054); experiment: FP competitive assay using tracer 7; type: binding; settings: for IC50: Table 3 source data; for FP(mp): Tracer 7, replicate wells
T1 sequence (P25054 303-739): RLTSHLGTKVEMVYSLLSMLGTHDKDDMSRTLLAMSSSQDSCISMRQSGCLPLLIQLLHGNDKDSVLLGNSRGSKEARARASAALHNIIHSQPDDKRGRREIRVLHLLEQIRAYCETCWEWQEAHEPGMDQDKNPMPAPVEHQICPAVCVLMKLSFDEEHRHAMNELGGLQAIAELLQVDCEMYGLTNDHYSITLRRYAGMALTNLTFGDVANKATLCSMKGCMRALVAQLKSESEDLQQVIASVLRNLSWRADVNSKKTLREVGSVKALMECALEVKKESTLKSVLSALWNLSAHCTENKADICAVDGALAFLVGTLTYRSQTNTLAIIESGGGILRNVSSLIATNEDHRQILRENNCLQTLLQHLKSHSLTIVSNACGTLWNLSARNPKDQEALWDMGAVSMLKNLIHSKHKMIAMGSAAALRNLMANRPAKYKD
Summary of the method: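 Fluorescence polarization competition: APC (303–739) in 50 mM HEPES pH 7.5, 300 mM NaCl, 1 mM EDTA, 1 mM DTT, preincubated 1 h at room temperature with serially diluted peptides. FITC tracer 7 then added (400 nM stock) and FP read after 1.5 h at room temperature; IC50 by nonlinear regression, triplicates.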

APC = target: T2, APC (Homo sapiens, UniProt P25054); experiment: FP competitive assay using tracer 1; type: binding; settings: for IC50: Supplementary Table 4, read-out: IC50, Tracer 1; for FP(mp): Tracer 1, triplicate raw readings
T2 sequence (P25054 303-739): T1 sequence (P25054 303-739)
Description: In our previous study, we established an FP assay for screening APC–Asef inhibitors using FITC-labeled tracer 1 (Ac–^176[…][FITC]^195–NH2)[16]. […]. However, their Kd values measured by isothermal titration calorimetry (ITC) actually vary up to more than 20 times[16],[17]. […].
FITC-labeled tracer peptides were obtained from Changzhou Kanglong Biotech Ltd. (Changzhou, Jiangsu, China). […]. The FP signal changes upon tracer binding were measured after 1.5 h of incubation using a Synergy neo microplate reader (BioTek Instruments, Inc.) and plotted against the protein concentration. The corresponding EC50 values were generated by fitting the curves with a nonlinear regression model. […]. To make a working solution, APC (303–739) was diluted in FP buffer (50 mM HEPES, pH 7.5, 300 mM NaCl, 1 mM EDTA, 1 mM DTT). […] The FP signals were measured after 1.5 h of incubation at room temperature using a Synergy neo microplate reader. Three controls were included on each plate, i.e., blank (without protein and tracer), 100% inhibition (free tracer only), and 0% inhibition (protein/tracer complex only) controls. All experiments were performed in triplicate. The IC50 values of peptides were calculated by nonlinear regression analysis using GraphPad Prism 7.0 software.

[1] = Repeat 1, read-out: IC50(μM) Repeat 1
[2] = Repeat 2, read-out: IC50(μM) Repeat 2
[3] = Repeat 3, read-out: IC50(μM) Repeat 3
[4] = mean of 3 repeats, read-out: IC50(μM) mean

Structure (SMILES)	IC50 (APC (303–739); [1]) [µM]	IC50 (APC (303–739); [2]) [µM]	IC50 (APC (303–739); [3]) [µM]	FP(mp) (APC (303–739); Conc. 0.0061 μM)	FP(mp) (APC (303–739); Conc. 0.0122 μM)	FP(mp) (APC (303–739); Conc. 0.0244 μM)	FP(mp) (APC (303–739); Conc. 0.05 μM)	FP(mp) (APC (303–739); Conc. 0.10 μM)	FP(mp) (APC (303–739); Conc. 0.20 μM)	FP(mp) (APC (303–739); Conc. 0.39 μM)	FP(mp) (APC (303–739); Conc. 0.78 μM)	FP(mp) (APC (303–739); Conc. 1.56 μM)	FP(mp) (APC (303–739); Conc. 3.13 μM)	FP(mp) (APC (303–739); Conc. 6.25 μM)	FP(mp) (APC (303–739); Conc. 12.50 μM)	FP(mp) (APC (303–739); Conc. 25.00 μM)	FP(mp) (APC (303–739); Conc. 50.00 μM)	IC50 (APC (303–739); [4]) [µM]	IC50 (APC) [nM]	FP(mp) (APC; Conc. 0.05 μM)	other results
CC(C)C[C@H](NC(=O)[C@H](CO)NC(=O)[C@H](CCC(=O)O)NC(=O)CNC(=O)[C@H](C)NC(=O)c1ccc[nH]1)C(=O)N[C@@H](Cc1ccc(O)cc1)C(=O)N[C@@H](CCC(=O)O)C(N)=O [MAI-509] (Pyrrole2CO-AGESLYE-NH2)	0.595	0.526	0.599	288 mp and 294 mp and 291 mp	287 mp and 290 mp and 289 mp	290 mp (2×) and 292 mp	281 mp and 276 mp and 278 mp	261 mp and 262 mp and 266 mp	233 mp and 232 mp and 238 mp	196 mp and 201 mp and 193 mp	163 mp and 164 mp (2×)	129 mp and 126 mp (2×)	103 mp and 101 mp (2×)	81 mp and 84 mp and 83 mp	71 mp and 69 mp and 67 mp	65 mp and 63 mp (2×)	63 mp and 60 mp (2×)	0.573	640 ± 170	182 mp and 179 mp	FP(mp) (APC; Conc. 0.10 μM): 180 mp and 177 mp; FP(mp) (APC; Conc. 0.20 μM): 175 mp and 169 mp and 173 mp; FP(mp) (APC; Conc. 0.39 μM): 157 mp and 159 mp and 160 mp; FP(mp) (APC; Conc. 0.78 μM): 120 mp and 128 mp and 126 mp; FP(mp) (APC; Conc. 1.56 μM): 72 mp and 73 mp; FP(mp) (APC; Conc. 3.13 μM): 56 mp and 54 mp; FP(mp) (APC; Conc. 6.25 μM): 52 mp and 55 mp and 51 mp; FP(mp) (APC; Conc. 12.50 μM): 50 mp and 51 mp and 47 mp; FP(mp) (APC; Conc. 25.00 μM): 50 mp and 48 mp; FP(mp) (APC; Conc. 50.00 μM): 48 mp and 50 mp and 46 mp; FP(mp) (APC; Conc. 100.00 μM): 50 mp and 51 mp and 47 mp; FP(mp) (APC; Conc. 200.00 μM): 48 mp and 50 mp; FP(mp) (APC; Conc. 400.00 μM): 57 mp and 53 mp
CC(C)C[C@H](NC(=O)[C@H](CO)NC(=O)[C@H](CCC(=O)O)NC(=O)CNC(=O)[C@H](C)NC(=O)C12CC3CC(CC(C3)C1)C2)C(=O)N[C@@H](Cc1ccc(O)cc1)C(=O)N[C@@H](CCC(=O)O)C(N)=O [MAI-505] (Adamantane1carbonyl-AGESLYE-NH2)	1.57	1.73	1.57	310 mp and 307 mp and 309 mp	303 mp and 302 mp and 307 mp	307 mp and 305 mp and 308 mp	302 mp and 304 mp and 307 mp	294 mp and 293 mp and 295 mp	282 mp (2×) and 276 mp	256 mp and 254 mp and 252 mp	224 mp and 222 mp and 229 mp	180 mp and 186 mp and 189 mp	136 mp and 134 mp and 137 mp	106 mp (2×) and 108 mp	85 mp and 86 mp and 89 mp	67 mp and 68 mp and 71 mp	57 mp and 60 mp and 59 mp	1.62	440 ± 120	181 mp	FP(mp) (APC; Conc. 0.10 μM): 177 mp and 182 mp and 179 mp; FP(mp) (APC; Conc. 0.20 μM): 161 mp and 172 mp and 174 mp; FP(mp) (APC; Conc. 0.39 μM): 139 mp and 163 mp and 161 mp; FP(mp) (APC; Conc. 0.78 μM): 68 mp and 100 mp and 109 mp; FP(mp) (APC; Conc. 1.56 μM): 56 mp and 64 mp and 68 mp; FP(mp) (APC; Conc. 3.13 μM): 57 mp and 55 mp and 56 mp; FP(mp) (APC; Conc. 6.25 μM): 52 mp and 51 mp; FP(mp) (APC; Conc. 12.50 μM): 51 mp and 49 mp and 50 mp; FP(mp) (APC; Conc. 25.00 μM): 47 mp and 50 mp; FP(mp) (APC; Conc. 50.00 μM): 49 mp and 51 mp; FP(mp) (APC; Conc. 100.00 μM): 50 mp and 48 mp; FP(mp) (APC; Conc. 200.00 μM): 50 mp and 51 mp; FP(mp) (APC; Conc. 400.00 μM): 50 mp and 49 mp
CC(C)C[C@H](NC(=O)[C@H](CO)NC(=O)[C@H](CCC(=O)O)NC(=O)CNC(=O)[C@H](C)NC(=O)c1cncs1)C(=O)N[C@@H](Cc1ccc(O)cc1)C(=O)N[C@@H](CCC(=O)O)C(N)=O [MAI-508] (X2-AGESLYE-NH2)	0.221	0.194	0.241	306 mp	306 mp and 305 mp and 307 mp	290 mp (2×) and 289 mp	268 mp and 265 mp and 269 mp	236 mp and 233 mp (2×)	190 mp and 195 mp and 192 mp	150 mp and 147 mp and 149 mp	113 mp (2×) and 114 mp	85 mp and 90 mp and 86 mp	73 mp and 71 mp and 74 mp	65 mp and 60 mp and 61 mp	61 mp and 56 mp and 59 mp	52 mp and 55 mp and 57 mp	58 mp and 50 mp and 54 mp	0.219	480 ± 160	185 mp and 183 mp and 179 mp	FP(mp) (APC; Conc. 0.10 μM): 180 mp and 181 mp and 176 mp; FP(mp) (APC; Conc. 0.20 μM): 173 mp and 176 mp; FP(mp) (APC; Conc. 0.39 μM): 162 mp and 161 mp; FP(mp) (APC; Conc. 0.78 μM): 105 mp and 98 mp and 106 mp; FP(mp) (APC; Conc. 1.56 μM): 54 mp and 56 mp; FP(mp) (APC; Conc. 3.13 μM): 52 mp and 48 mp and 49 mp; FP(mp) (APC; Conc. 6.25 μM): 50 mp and 47 mp and 48 mp; FP(mp) (APC; Conc. 12.50 μM): 47 mp and 46 mp; FP(mp) (APC; Conc. 25.00 μM): 50 mp and 48 mp and 46 mp; FP(mp) (APC; Conc. 100.00 μM): 50 mp and 47 mp; FP(mp) (APC; Conc. 200.00 μM): 51 mp and 48 mp and 49 mp; FP(mp) (APC; Conc. 400.00 μM): 51 mp and 49 mp
